Active and inactive are the calls of the source. No cut-off for these calls is given here.
Key:
MCF7 [1] = experiment: Growth inhibition of Homo sapiens (human) MCF7 cells after 48 hr by MTT assay; format: functional, cell-based
HeLa [2] = experiment: Growth inhibition of Homo sapiens (human) HeLa cells after 48 hr by MTT assay; format: functional, cell-based
MDA-MB-231 [3] = experiment: Growth inhibition of Homo sapiens (human) MDA-MB-231 cells after 48 hr by MTT assay; format: functional, cell-based
Raji = experiment: Growth inhibition of Homo sapiens (human) Raji cells after 48 hr by MTT assay; format: functional, cell-based
HL-60 [4] = experiment: Growth inhibition of Homo sapiens (human) HL60 cells after 48 hr by MTT assay; format: functional, cell-based; settings: HL-60, 48 h
MDA-MB-231 [5] = experiment: Anticancer activity against Homo sapiens (human) MDA-MB-231 cells assessed as cell viability at 50 uM after 48 hr by MTT assay (reference value: 100%); format: functional; settings: MDA-MB-231, 48 h, read-out: Activity
HeLa [6] = experiment: Anticancer activity against Homo sapiens (human) HeLa cells assessed as cell viability at 50 uM after 48 hr by MTT assay (reference value: 100%); format: functional; settings: read-out: Activity
MCF7 [7] = experiment: Anticancer activity against Homo sapiens (human) MCF7 cells assessed as cell viability at 50 uM after 48 hr by MTT assay (reference value: 100%); format: functional; settings: MCF7, 48 h, read-out: Activity
HL-60 [8] = experiment: Anticancer activity against Homo sapiens (human) HL60 cells assessed as cell viability at 50 uM after 48 hr by MTT assay (reference value: 100%); format: functional; settings: HL-60, 48 h, read-out: Activity

SMILES	IC50 (Raji) [µM]	IC50 (HL-60 [4]) [µM]	GI50 (Raji) [µM]	GI50 (HL-60 [4]) [µM]	growth inhibition (GI) (MCF7 [1])	growth inhibition (GI) (HeLa [2])	growth inhibition (GI) (MDA-MB-231 [3])	viability at 50 µM (MDA-MB-231 [5]) [%]	viability at 50 µM (HeLa [6]) [%]	viability at 50 µM (MCF7 [7]) [%]	viability at 50 µM (HL-60 [8]) [%]
O=C(c1cn(-c2ccccc2)nc1-c1ccsc1)N1CCN(c2ccccc2)CC1								81.4	67.9		
CC(C)c1cccc(OC(=O)c2cn(-c3ccccc3)nc2-c2ccsc2)c1	> 100	> 100			inactive	inactive	inactive				
Cc1cccc(C(C)C)c1OC(=O)c1cn(-c2ccccc2)nc1-c1ccsc1	> 100	> 100			inactive	inactive	inactive				
O=C(Oc1ccc2ccccc2c1)c1cn(-c2ccccc2)nc1-c1ccsc1	> 100	> 100			inactive	inactive	inactive				
O=C(c1cn(-c2ccccc2)nc1-c1ccsc1)N1CCN(c2ccc(C(F)(F)F)cc2)CC1			32	36.7				84.2	80.7	85.9	
CN1CCN(C(=O)c2cn(-c3ccccc3)nc2-c2ccsc2)CC1	> 100	> 100									
O=C(NCc1ccccc1)c1cn(-c2ccccc2)nc1-c1ccsc1								85	82.3		
O=C(c1cn(-c2ccccc2)nc1-c1ccsc1)N1CCOCC1	> 100	> 100						77.6			
O=C(c1cn(-c2ccccc2)nc1-c1ccsc1)N1CCC(Cc2ccccc2)CC1			25.2	28.3				82.8	71.8	90.7	39.1

Now from value to compound, other results behind:

IC50 (Raji) [µM]	IC50 (HL-60 [4]) [µM]	GI50 (Raji) [µM]	GI50 (HL-60 [4]) [µM]	SMILES	growth inhibition (GI) (MCF7 [1])	growth inhibition (GI) (HeLa [2])	growth inhibition (GI) (MDA-MB-231 [3])	viability at 50 µM (MDA-MB-231 [5]) [%]	viability at 50 µM (HeLa [6]) [%]	viability at 50 µM (MCF7 [7]) [%]	viability at 50 µM (HL-60 [8]) [%]
> 100	> 100			COc1ccc(OC(=O)c2cn(-c3ccccc3)nc2-c2ccsc2)cc1	inactive	inactive	inactive				
> 100	> 100			O=C(Oc1ccc(-c2ccccc2)cc1)c1cn(-c2ccccc2)nc1-c1ccsc1	inactive	inactive	inactive				
> 100	> 100			O=C(c1cn(-c2ccccc2)nc1-c1ccsc1)N1CCN(c2ccncc2)CC1				87.4			
> 100	> 100			O=C(O)c1cn(-c2ccccc2)nc1-c1ccsc1				80.9			
> 100	> 100			CCc1ccc(OC(=O)c2cn(-c3ccccc3)nc2-c2ccsc2)cc1	inactive	inactive	inactive				

— ChEMBL document CHEMBL3045075, “Synthesis of ester and amide derivatives of 1-phenyl-3-(thiophen-3-yl)-1H-pyrazole-4-carboxylic acid and study of their anticancer activity” (Med Chem Res, 2013)
